Reference: ChEMBL document CHEMBL1201862, “PubChem BioAssay data set” (2004)
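Each compound was tested at five concentrations against cells in 96-well plates for 48 hours. Abbreviation: GI50, concentration required for 50% inhibition of growth.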 Calls of active or inactive are those of the source. Rule as the data show it: active = GI50 up to about 1.1 µM and inactive = higher.

Legend:
Experiment in all cases: NCI tumour cell line growth inhibition, 48 h
[1] = system: 786-0
[2] = system: CAKI-1
[3] = system: HCT-116
[4] = system: HCT-15
[5] = system: HT-29
[6] = system: KM12
[7] = system: LOX IMVI
[8] = system: MOLT-4
[9] = system: NCI-H460
[10] = system: OVCAR-5
[11] = system: OVCAR-8
[12] = system: SF-268
[13] = system: SN12C
[14] = system: SW-620
[15] = system: UACC-257
[16] = system: RPMI-8226

Row | Structure (SMILES) | GI50 [1] | GI50 [2] | GI50 [3] | GI50 [4] [µM] | GI50 [5] | GI50 [6] | GI50 [7] | GI50 [8] | GI50 [9] | GI50 [10] | GI50 [11] | GI50 [12] | GI50 [13] | GI50 [14] | GI50 [15] | GI50 [16]
1 | CN(C)CCNC(=O)c1cccc2c1nc(-c1ccncc1)c1ccccc12 | 3.66 µM (inactive) | 1.81 µM (inactive) | 1.46 µM (inactive) | 1.99 | 3.32 µM (inactive) | 5.28 µM (inactive) | 1.35 µM (inactive) | 0.0316 µM (active) | 0.0408 µM (active) | 4.88 µM (inactive) | 3.06 µM (inactive) | 5.53 µM (inactive) | 1.58 µM (inactive) | 1.11 µM (active) | 3.01 µM (inactive) | 
2 | COc1ccc(C(=O)Cc2c(C(=O)c3ccccc3)c3ccccc3n2C(=O)c2ccccc2)cc1 | > 100 µM (inactive) | > 100 µM (inactive) | 37.2 µM (inactive) | 46 | > 100 µM (inactive) | 53.8 µM (inactive) |  | 25.6 µM (inactive) | 26.4 µM (inactive) | > 100 µM (inactive) | > 100 µM (inactive) | > 100 µM (inactive) |  | 29.8 µM (inactive) | > 100 µM (inactive) | 11.9 µM (inactive)
3 | O=[N+]([O-])c1cccc(C2=NOC3C4CCC(C4)C23)c1 (stereo not given) | > 100 µM (inactive) |  | > 100 µM (inactive) | > 100 | > 100 µM (inactive) | > 100 µM (inactive) |  | > 100 µM (inactive) | > 100 µM (inactive) | > 100 µM (inactive) | > 100 µM (inactive) | > 100 µM (inactive) | > 100 µM (inactive) | 22.3 µM (inactive) | > 100 µM (inactive) | > 100 µM (inactive)
4 | COc1ccc2oc3c4c2c1CCC4CCC3=O (stereo not given) | > 100 µM (inactive) |  |  |  | > 100 µM (inactive) | > 100 µM (inactive) | > 100 µM (inactive) | 52.8 µM (inactive) | > 100 µM (inactive) | > 100 µM (inactive) | 59.4 µM (inactive) | 85.9 µM (inactive) | > 100 µM (inactive) | > 100 µM (inactive) | 16.8 µM (inactive) | > 100 µM (inactive)
5 | CCC1CN2CCc3c([nH]c4ccccc34)C2C[C@@H]1CC(=O)N(C)C (stereo not given in full) | > 100 µM (inactive) |  | > 100 µM (inactive) | > 100 | > 100 µM (inactive) | > 100 µM (inactive) | > 100 µM (inactive) | > 100 µM (inactive) | > 100 µM (inactive) | > 100 µM (inactive) | > 100 µM (inactive) | > 100 µM (inactive) | > 100 µM (inactive) | > 100 µM (inactive) | > 100 µM (inactive) | 
6 | COCCOCOC(CCCCO)c1cc(C)c(O[Si](C)(C)C(C)(C)C)c(C)c1 (stereo not given) | 11.1 µM (inactive) |  |  | 7.36 |  | 4.59 µM (inactive) | 5.66 µM (inactive) | 2.86 µM (inactive) | 5.24 µM (inactive) | 13.7 µM (inactive) | 5.01 µM (inactive) | 6.05 µM (inactive) | 2.69 µM (inactive) | 7.31 µM (inactive) | 3.01 µM (inactive) | 2.08 µM (inactive)
7 | CC1C2=CC=C(O2)C(C)(C)C2=CC=C(O2)C(C)(C)C2=CC=C(O2)C(C)(C)C2=CC=C1O2 | > 100 µM (inactive) | > 100 µM (inactive) | > 100 µM (inactive) | > 100 | > 100 µM (inactive) | > 100 µM (inactive) | > 100 µM (inactive) | > 100 µM (inactive) | > 100 µM (inactive) | > 100 µM (inactive) | > 100 µM (inactive) | > 100 µM (inactive) | > 100 µM (inactive) | > 100 µM (inactive) | > 100 µM (inactive) | 
8 | Oc1cc(-c2ccccn2)nc2cccc(F)c12 | > 100 µM (inactive) |  |  |  | > 100 µM (inactive) | > 100 µM (inactive) | 89.9 µM (inactive) | > 100 µM (inactive) | > 100 µM (inactive) | > 100 µM (inactive) | > 100 µM (inactive) |  | > 100 µM (inactive) | > 100 µM (inactive) | > 100 µM (inactive) | > 100 µM (inactive)
